The target of experiment [1] is T1, α1B Human Adrenergic Receptor (Homo sapiens, UniProt P35368).
T1 construct: The entire coding region of α1B (1563 bp); expressed in transfected cells
T1 sequence (P35368 1-520): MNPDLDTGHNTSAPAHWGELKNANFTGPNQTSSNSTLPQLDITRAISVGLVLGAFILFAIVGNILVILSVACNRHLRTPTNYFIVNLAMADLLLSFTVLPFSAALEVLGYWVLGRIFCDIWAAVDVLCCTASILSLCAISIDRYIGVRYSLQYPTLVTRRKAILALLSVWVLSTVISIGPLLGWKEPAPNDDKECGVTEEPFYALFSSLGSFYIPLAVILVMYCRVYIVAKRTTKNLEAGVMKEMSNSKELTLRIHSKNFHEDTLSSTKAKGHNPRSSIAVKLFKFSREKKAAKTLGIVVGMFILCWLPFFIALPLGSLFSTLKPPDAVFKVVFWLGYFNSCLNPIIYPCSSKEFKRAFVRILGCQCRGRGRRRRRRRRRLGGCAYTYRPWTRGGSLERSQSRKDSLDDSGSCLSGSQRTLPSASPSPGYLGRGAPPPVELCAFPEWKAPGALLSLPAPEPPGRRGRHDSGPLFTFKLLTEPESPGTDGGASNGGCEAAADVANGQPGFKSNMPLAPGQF
As to the kind of experiment: Radioligand binding, [3H]prazosin, cloned human α1B adrenergic receptor. The settings on record: for pKi alpha-1 1b: LM(tk−) cell membranes. The procedure, abridged: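 Membranes from stably transfected LM(tk−) cells, resuspended in 50 mM Tris-HCl, 1 mM MgCl2, 0.1% ascorbic acid, pH 7.5, were incubated with 0.5 nM [3H]prazosin for 20 min at 37° C. Nonspecific binding defined with 10 μM phentolamine; bound ligand separated by GF/B filtration.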

Another experiment deals with T2, α2B receptor (Homo sapiens, UniProt P18089).
T2 construct: host or cells: LM(tk-) cells, line L-NGC-α2B
T2 sequence (P18089 1-450): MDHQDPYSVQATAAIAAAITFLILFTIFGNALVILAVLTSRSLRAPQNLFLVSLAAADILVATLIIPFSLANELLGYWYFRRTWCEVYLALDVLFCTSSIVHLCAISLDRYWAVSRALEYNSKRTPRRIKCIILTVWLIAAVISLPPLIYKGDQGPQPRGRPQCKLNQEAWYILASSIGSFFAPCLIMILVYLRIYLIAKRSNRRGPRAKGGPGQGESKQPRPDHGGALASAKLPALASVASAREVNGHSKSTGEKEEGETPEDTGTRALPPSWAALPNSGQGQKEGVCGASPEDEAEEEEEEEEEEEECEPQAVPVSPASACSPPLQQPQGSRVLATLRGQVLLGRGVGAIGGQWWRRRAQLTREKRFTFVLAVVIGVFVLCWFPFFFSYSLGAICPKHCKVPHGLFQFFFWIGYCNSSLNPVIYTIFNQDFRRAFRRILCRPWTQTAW
As to the kind of experiment: Competition binding, [3H]rauwolscine, human α2B receptor. To be noted: for pKi alpha-2 2b: LM(tk−) cells. The method in brief:
(§1)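 Lysates of LM(tk−) cells stably expressing human α2A, α2B or α2C receptors in 25 mM glycylglycine pH 7.6. Equilibrium competition against 0.5 nM [3H]rauwolscine, with 10 μM phentolamine defining nonspecific binding. Bound ligand separated by GF/B filtration.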

In the next experiment the target is T3, α2C receptor (Homo sapiens, UniProt P18825).
T3 construct: host or cells: LM(tk-) cells, line L-α2C
T3 sequence (P18825 1-462): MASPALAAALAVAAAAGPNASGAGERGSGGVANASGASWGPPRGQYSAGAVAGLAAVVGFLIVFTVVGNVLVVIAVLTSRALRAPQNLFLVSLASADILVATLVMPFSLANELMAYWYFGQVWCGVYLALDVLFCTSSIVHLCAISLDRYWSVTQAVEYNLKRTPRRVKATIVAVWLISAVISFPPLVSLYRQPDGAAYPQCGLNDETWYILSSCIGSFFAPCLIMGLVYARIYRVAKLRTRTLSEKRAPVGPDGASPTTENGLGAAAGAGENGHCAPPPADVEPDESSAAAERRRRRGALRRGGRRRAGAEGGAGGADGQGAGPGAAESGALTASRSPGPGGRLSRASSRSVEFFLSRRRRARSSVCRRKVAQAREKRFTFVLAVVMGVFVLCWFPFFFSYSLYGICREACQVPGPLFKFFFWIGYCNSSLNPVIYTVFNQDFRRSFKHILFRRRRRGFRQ
As to the kind of experiment: Competition binding, [3H]rauwolscine, human α2C receptor. To be noted: for pKi alpha-2 2c: LM(tk−) cells. The procedure, abridged:
as §1

For another experiment, the target named is T4, α2A receptor (Homo sapiens, UniProt P08913).
T4 construct: host or cells: LM(tk-) cells, line L-α2A
T4 sequence (P08913 1-465): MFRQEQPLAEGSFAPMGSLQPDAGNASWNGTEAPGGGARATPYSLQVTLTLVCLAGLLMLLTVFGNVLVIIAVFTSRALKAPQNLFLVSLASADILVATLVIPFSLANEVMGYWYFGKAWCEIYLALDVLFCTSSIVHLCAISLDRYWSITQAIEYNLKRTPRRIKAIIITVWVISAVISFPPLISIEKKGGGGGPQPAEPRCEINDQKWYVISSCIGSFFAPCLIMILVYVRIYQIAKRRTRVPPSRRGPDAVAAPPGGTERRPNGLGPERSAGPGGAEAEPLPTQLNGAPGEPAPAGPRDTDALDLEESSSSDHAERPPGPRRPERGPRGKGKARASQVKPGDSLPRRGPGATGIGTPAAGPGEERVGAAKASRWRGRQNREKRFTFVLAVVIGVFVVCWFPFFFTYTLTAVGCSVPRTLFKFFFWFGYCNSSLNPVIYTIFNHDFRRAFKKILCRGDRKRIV
As to the kind of experiment: Competition binding, [3H]rauwolscine, human α2A receptor. The procedure, abridged:
as §1

Setting [2] is: [3H]rauwolscine, human α2B receptor.
Setting [3] is: [3H]rauwolscine, human α2C receptor.
The mark [4] stands for this setting: cloned human receptor in LM(tk-) cell membranes, SEM and n in lines below, read-out: pKi alpha-1 1b (converted).
Where [5] appears, read: [3H]rauwolscine, LM(tk-) cell line L-NGC-α2B, SEM and n in lines below, read-out: pKi alpha-2 2b (converted).
The mark [6] stands for this setting: [3H]rauwolscine, LM(tk-) cell line L-α2C, SEM and n in lines below, read-out: pKi alpha-2 2c (converted).
Setting [7] is: [3H]rauwolscine, LM(tk-) cell line L-α2A, SEM and n in lines below, read-out: pKi alpha-2 2a (converted).
Setting [8] is: cloned human receptor, LM(tk-) cell membranes, mean, read-out: PKi alpha-1 1b (converted).
[9] abbreviates: [3H]rauwolscine, human receptor, LM(tk-) cell lysates, mean, read-out: PKi alpha-2 2b (converted).
Where [10] appears, read: [3H]rauwolscine, human receptor, LM(tk-) cell lysates, mean, read-out: PKi alpha-2 2c (converted).
The mark [11] stands for this setting: [3H]rauwolscine, human receptor, LM(tk-) cell lysates, mean, read-out: PKi alpha-2 2a (converted).
Setting [12] is: cloned human α1B receptor, LM(tk-) cell membranes, read-out: PKi alpha-1 1b (converted).
Where [13] appears, read: [3H]rauwolscine, human α2B receptor, LM(tk-) cells, read-out: PKi alpha-2 2b (converted).
Setting [14] is: [3H]rauwolscine, human α2C receptor, LM(tk-) cells, read-out: PKi alpha-2 2c (converted).
Where [15] appears, read: [3H]rauwolscine, human α2A receptor, LM(tk-) cells, read-out: PKi alpha-2 2a (converted).

Where a name gives a salt, the structure may show the parent alone. Read-outs that look alike come from different tables or passages of the source.

For the compound `CCC1=C(C(=O)NC)C(c2ccc([N+](=O)[O-])cc2)C(C(=O)NCCCN2CCC(C#N)(c3ccccc3)CC2)=C(CC)N1` (centres unmarked) [Example 126, 3-{N-[3-(4-Cyano-4-phenylpiperidin-1-yl)propyl]}carboxamido-1,4-dihydro-2,6-diethyl-5-(1-methyl)carboxamido-4-(4-nitrophenyl)pyridine], in experiment [1] (cloned human α1B receptor), the “pKi alpha-1 1b” value is given as 5.37. In addition, the “pKi alpha-2 2b” value at α2B receptor (setting [2]) is 5.63. The “pKi alpha-2 2c” value at α2C receptor (setting [3]) is 5.36. In addition, the “pKi alpha-2 2a” value on α2A receptor ([3H]rauwolscine, human α2A receptor, LM(tk−) cells) is listed as 5.33.

Take `COC(=O)C1=C(C)NC(C)=C(C(=O)NCCCN2CCc3cc(OC)c(OC)cc3C2)C1c1ccc([N+](=O)[O-])cc1` (centres unmarked) [Example 57, 1,4-Dihydro-3-methoxycarbonyl-5-{N-[3-(1,2,3,4-tetrahydro-6,7-dimethoxyisoquinolin-2-yl)propyl]}carboxamido-2,6-dimethyl-4-(4-nitrophenyl)pyridine hydrochloride hydrate]: the Ki was 1230 nM in experiment [1] (setting [4]), 1860 nM on α2B receptor (setting [5]), 158 nM at α2C receptor (setting [6]) and 195 nM on α2A receptor (setting [7]).

For the compound `CCOC(=O)C1(c2ccccc2)CCN(CCCNC(=O)C2=C(COCCN)NC(CC)=C(C(=O)O)C2c2ccc([N+](=O)[O-])cc2)CC1` (centres unmarked) [Example 196, 2-[(2-Aminoethoxy)methyl]-3-{N-[3-(4-ethoxycarbonyl-4-phenylpiperidin-1-yl)propyl]}carboxamido-1,4-dihydro-6-ethyl-4-(4-nitrophenyl)pyridine-5-carboxylic Acid], the Ki in experiment [1] (setting [8]) was 3630 nM; on α2B receptor (setting [9]), 4680 nM; on α2C receptor (setting [10]) it was 3090 nM; on α2A receptor (setting [11]), 8320 nM.

As to `CCC1=C(C(N)=O)C(c2ccc([N+](=O)[O-])cc2)C(C(=O)NCCCN2CCC(C(=O)OC)(c3ccccc3)CC2)=C(CC)N1` (centres unmarked) [Example 200], the Ki was 2000 nM in experiment [1] (setting [8]), 1070 nM on α2B receptor (PKi alpha-2 2b), 1620 nM at α2C receptor (PKi alpha-2 2c) and 5500 nM at α2A receptor.

On to `COC(=O)C1=C(C)NC(C)=C(C(=O)NCCCN2CCC(c3ccccc3)CC2)C1c1ccc2c(c1)OCO2` (centres unmarked) [Example 250], for which the Ki is 69.2 nM in experiment [1] (setting [12]), 39.8 nM on α2B receptor (setting [13]), 36.3 nM on α2C receptor (setting [14]) and 123 nM on α2A receptor (setting [15]).

As for `CCOC(=O)C1(c2ccccc2)CCN(CCCNC(=O)C2=C(COCCN)NC(CC)=C(C(N)=O)C2c2ccc([N+](=O)[O-])cc2)CC1` (centres unmarked) [Example 193, 2-[(2-Aminoethoxy)methyl]-5-carboxamido-3-{N-[3-(4-ethoxycarbonyl-4-phenylpiperidin-1-yl)propyl]}carboxamido-1,4-dihydro-6-ethyl-4-(4-nitrophenyl)pyridine], the Ki in experiment [1] (setting [8]) is 1740 nM; on α2B receptor (setting [9]), 2400 nM; on α2C receptor (setting [10]) it was 631 nM; on α2A receptor (setting [11]) it was 1020 nM.

With `CCOC(=O)C1(c2ccccc2)CCN(CCCNC(=O)C2=C(COC)NC(CC)=C(C(=O)O)C2c2ccc([N+](=O)[O-])cc2)CC1` (centres unmarked) [Example 240, 3-(N-3-(4-Ethoxycarbonyl-4-phenylpiperidin-1-yl)propyl)carboxamido-6-ethyl-1,4-dihydro-2-(methyloxy)methyl-4-(4-nitro)phenylpyridine-5-carboxylic Acid], the Ki in experiment [1] (setting [12]) was 4470 nM; at α2B receptor (PKi alpha-2 2b), 6310 nM; on α2C receptor (PKi alpha-2 2c) it was 11700 nM; at α2A receptor it was 18600 nM.

For the compound `COC(=O)C1(c2ccccc2)CCN(CCCNC(=O)C2=C(COCCN)NC(C)=C(C(C)=O)C2c2ccc(F)cc2)CC1` (centres unmarked) [Example 245, 5-Acetyl-2-((2-aminoethyl)oxy)methyl-4-(4-fluoro)phenyl-1,4-dihydro-3-(N-3-(4-methoxycarbonyl-4-phenylpiperidin-1-yl)propyl)carboxamido-6-methylpyridine], the Ki in experiment [1] (setting [12]) is 355 nM; on α2B receptor (setting [13]) it was 2750 nM; on α2C receptor (setting [14]), 316 nM; on α2A receptor (setting [15]) it was 1050 nM.

As to `CC1=C(C(=O)NCCCN2CCC(c3ccccc3)CC2)C(c2ccc([N+](=O)[O-])cc2)c2c([nH]c(=O)[nH]c2=O)N1` (centres unmarked) [Example 63, 1,4-Dihydro-6-methyl-4-(4-nitrophenyl)-5-{N-[3-(4-phenylpiperidin-1-yl)propyl]}carboxamido-[2,3, d]uracilylpyridine], the Ki in experiment [1] (setting [4]) is 18.6 nM; on α2B receptor (setting [5]), 132 nM; on α2C receptor (setting [6]) it was 170 nM; at α2A receptor (setting [7]) it was 955 nM.

On to `CCC1=C(C(=O)NC)C(c2ccc([N+](=O)[O-])cc2)C(C(=O)NCCCN2CCC(C(=O)OC)(c3ccccc3)CC2)=C(CCCCOC)N1` (centres unmarked) [Example 174, 6-Ethyl-1,4-dihydro-2-(4-methoxybutyl)-3-{N-[3-(4-methoxycarbonyl-4-phenylpiperidin-1-yl)propyl]}carboxamido-5-(N-methyl)carboxamido-4-(4-nitrophenyl)pyridine], for which the Ki in experiment [1] (setting [8]) is 1910 nM; on α2B receptor (setting [9]), 955 nM; on α2C receptor (setting [10]), 676 nM; at α2A receptor (setting [11]), 2000 nM.

On to `CCC1=C(C(N)=O)C(c2ccc([N+](=O)[O-])cc2)C(C(=O)NCCCN2CCC(c3ccccc3)(c3ccccc3)CC2)=C(CC)N1` (centres unmarked) [Example 120, 5-Carboxamido-2,6-diethyl-1,4-dihydro-4-(4-nitrophenyl)-3-{N-[3-(4,4-diphenylpiperidin-1-yl)propyl]} carboxamidopyridine], for which the “pKi alpha-1 1b” value in experiment [1] (cloned human α1B receptor) is 6.61. Further, the “pKi alpha-2 2b” value on α2B receptor (setting [2]) amounted to 6.59. Moreover, the “pKi alpha-2 2c” value at α2C receptor (setting [3]) is 6.72. For the same compound, the Ki on α2A receptor ([3H]rauwolscine, human α2A receptor, LM(tk−) cells, read-out: pKi alpha-2 2a (converted)) was 363 nM.

(Values after patent US6608086B2, “Dihydropyridines and new uses thereof” (Synaptic Pharmaceutical Corporation, priority 1993, dated 2003).)
